Reference: article PMC6381024, “Probing Anti-inflammatory Properties Independent of NF-κB Through Conformational Constraint of Peptide-Based Interleukin-1 Receptor Biased Ligands” (Frontiers in Chemistry, 2019)

What was measured:
[1] = test system: IL-1R; assay: Radioligand displacement of [125I]-peptide 1 in RAW-Blue macrophage cells; format: binding; settings: for Percentage of displacement of [125I]-1, relative to unlabeled peptide 1, ±SEM: 100 μM cold peptide pre-incubated 20 min, then 600 nM [125I]-peptide 1 for 2 h at 37°C, gamma counter, mean ± SEM, three independent experiments
Protocol: Displacement of radiolabeled peptide 1 was performed as described previously (Quiniou et al., [2008]). Briefly, RAW-Blue macrophage cells (InVivogen; San Diego, CA) were pre-incubated for 20 min with 100 μM of non-radiolabeled (“cold”) peptide 1, 5, or 6 followed by incubation for 2 h at 37°C with [^125I]-peptide 1 at 600 nM concentration to ensure maximal specific binding (Quiniou et al., [2008]). Cells were washed four times with PBS buffer and lysed with 0.1 N NaOH/0.1% Triton X-100. Bound radioactivity was measured on cell lysates with a Hidex AMG gamma counter (Hidex; Turku Finland). Data are representative of three independent experiments.
Peptide 1 is known to bind to IL-1R (Quiniou et al., [2008]). To determine if the Agl and Hgl derivatives occupied the same binding site as peptide 1, a radio-ligand displacement assay was used to determine the extent to which peptides 5 and 6 displaced radiolabeled 1.

[2] = test system: JNK; assay: IL-1β-induced JNK phosphorylation, Western blot in RAW Blue cells; format: cell-based; parameters: key to Western Blot JNK (heatmap grade of inhibition): 0: No effect; No effect 01234 Maximum inhibition/efficacy; No effect 01234 Maximum inhibition/efficacy; No effect 01234 Maximum inhibition/efficacy; 4: Maximum inhibition/efficacy; settings: for Western Blot JNK (heatmap grade of inhibition): RAW Blue cells, peptide 10^-6 M or Kineret 1.0 mg/mL 30 min, then IL-1β 100 ng/mL 15 min
Protocol: RAW Blue cells (Invivogen) were grown under standard conditions (37°C, 5% CO2) and maintained under passage number 15. Cells were equilibrated with 1, 5, or 6 (10^−6M) or Kineret (1.0 mg/mL) for 30 min, after which time they were exposed to IL-1β (100 ng/mL) for 15 min. Cells were harvested and lysed on ice for 30 min using a radioimmunoprecipitation assay buffer (Cell Signaling) supplemented with 1 mM phenylmethylsulfonyl fluoride (PMSF) and cOmplete™ EDTA-free protease inhibitor cocktail (Roche, Mannheim, Germany, prepared according to the manufacturer's instructions). Protein concentrations were determined using a Bradford protein assay (Bio-Rad) on 96-well plates with a microplate reader (EnVision Multilabel reader) measuring OD at […]. Bovine serum albumin serial dilutions were used to generate a standard curve. Lysates were then mixed with 4X reducing sample buffer (Bio-Rad).
Lysates were loaded (30 μg protein per well) in a 5% acrylamide stacking gel, and samples were electrophoresed in a 12% acrylamide resolving gel for 1.5 h at 120 V, followed by a 1 h transfer onto polyvinylidene difluoride (PDVF) membranes at 100 V. Membranes were blocked and incubated with 1:1,000 dilution of primary antibody and 1:20,000 dilution of secondary antibodies according to the manufacturer's instructions. Antibodies used were for phospho-p38 MAPK (Cell Signaling, #9211), p38 MAPK (Cell Signaling, #9212), SAPK/JNK (Cell Signaling, #9252), phospho-SAPK/JNK (Cell Signaling, #9251), ROCK2 (Thermo Fisher Scientific PA5-21131), phospho-ROCK2 (Thermo Fisher Scientific PA5-34895), and goat anti-rabbit conjugated to horseradish peroxidase (Abcam, ab6721). Membranes were imaged using an Amersham Imager 600 (GE Healthcare) using Clarity Western ECL Substrate (Bio-Rad). The intensity of protein bands was quantified using ImageJ and standardized using total (phosphorylated + non-phosphorylated) protein content. Data are representative of three independent experiments.
Figure 7 The effects of peptides 1, 5, and 6 on IL-1β-induced phosphorylation of JNK, ROCK2, and p38. Graphical representations of band density analysis of Western Blots, sorted into columns based on protein of interest (JNK, ROCK2, or p38) and rows by peptide configuration [(3R-) or (3S)]. RAW-blue cells were pretreated with peptides 1, 5, 6, Kineret, or vehicle for 30 min and then stimulated with IL-1β for 15 min. Images of representative Western Blots can be found in the Supplementary Figure 1. Results shown are the average of 3 independent experiments: ^*p < 0.05, ^**p < 0.01, ^***p < 0.001, ^****p < 0.0001 compared to group treated only with IL-1β. Treatment groups that are not labeled with asterisks are statistically non-significant compared to group treated only with IL-1β.

“H-D-Arg-D-Tyr-(3R,4R)-Hgl-(S)-Val-D-Glu-D-Leu-D-Ala-NH2 [[(3R,4R)-Hgl^3-(S)-Val^4]-1]” was tested, and the “Percentage of displacement of [125I]-1, relative to unlabeled peptide 1, ±SEM” value [1] was 82.12 ± 14.12% and the “Western Blot JNK (heatmap grade of inhibition)” value [2] was 1.
For “H-D-Arg-D-Tyr-(3R,4R)-Hgl-D-Val-D-Glu-D-Leu-D-Ala-NH2 [[(3R,4R)-Hgl^3]-1]”, the “Percentage of displacement of [125I]-1, relative to unlabeled peptide 1, ±SEM” value [1] was 104.6 ± 6.826% and the “Western Blot JNK (heatmap grade of inhibition)” value [2] was 0.
“H-D-Arg-D-Tyr-(3R,4S)-Hgl-(S)-Val-D-Glu-D-Leu-D-Ala-NH2 [[(3R,4S)-Hgl^3-(S)-Val^4]-1]” was tested, and the “Percentage of displacement of [125I]-1, relative to unlabeled peptide 1, ±SEM” value [1] was 58.63 ± 13.45% and the “Western Blot JNK (heatmap grade of inhibition)” value [2] was 2.
In the case of “H-D-Arg-D-Tyr-(3R,4S)-Hgl-D-Val-D-Glu-D-Leu-D-Ala-NH2 [[(3R,4S)-Hgl^3]-1]”, the “Percentage of displacement of [125I]-1, relative to unlabeled peptide 1, ±SEM” value [1] was 32.13 ± 16.94%, the “Capacity to displace [125I]-1 compared to cold unlabeled peptide 1” value ([1]; 100 μM cold peptide, 600 nM [125I]-peptide 1) was “significantly lower (p = 0.0011) ability to compete with radiolabeled peptide 1” and the “Western Blot JNK (heatmap grade of inhibition)” value [2] was 4.
In the case of “H-D-Arg-D-Tyr-(3S,4R)-Hgl-D-Val-D-Glu-D-Leu-D-Ala-NH2 [[(3S,4R)-Hgl^3]-1]”, the “Percentage of displacement of [125I]-1, relative to unlabeled peptide 1, ±SEM” value [1] was 78.64 ± 21.22% and the “Western Blot JNK (heatmap grade of inhibition)” value [2] was 3.
In the case of “H-D-Arg-D-Tyr-(R)-Agl-(S)-Val-D-Glu-D-Leu-D-Ala-NH2 [[(3R)-Agl^3-(S)-Val^4]-1]”, the “Percentage of displacement of [125I]-1, relative to unlabeled peptide 1, ±SEM” value [1] was 120.7 ± 15.69% and the “Western Blot JNK (heatmap grade of inhibition)” value [2] was 0.
For “H-D-Arg-D-Tyr-(R)-Agl-D-Val-D-Glu-D-Leu-D-Ala-NH2 [[(3R)-Agl^3]-1]”, the “Percentage of displacement of [125I]-1, relative to unlabeled peptide 1, ±SEM” value [1] was 83.55 ± 9.02% and the “Western Blot JNK (heatmap grade of inhibition)” value [2] was 4.
With “H-D-Arg-D-Tyr-(S)-Agl-(S)-Val-D-Glu-D-Leu-D-Ala-NH2 [[(3S)-Agl^3-(S)-Val^4]-1]” the “Percentage of displacement of [125I]-1, relative to unlabeled peptide 1, ±SEM” value [1] was 102.7 ± 8.637% and the “Western Blot JNK (heatmap grade of inhibition)” value [2] was 0.
“H-D-Arg-D-Tyr-(S)-Agl-D-Val-D-Glu-D-Leu-D-Ala-NH2 [[(3S)-Agl^3]-1]” was tested, and the “Percentage of displacement of [125I]-1, relative to unlabeled peptide 1, ±SEM” value [1] was 106.6 ± 12.39% and the “Western Blot JNK (heatmap grade of inhibition)” value [2] was 4.
For “H-D-Arg-D-Tyr-D-Thr-D-Val-D-Glu-D-Leu-D-Ala-NH2 [Peptide 1]”, the “Western Blot JNK (heatmap grade of inhibition)” value [2] was 4 and the “Inhibition of IL-1β-induced JNK phosphorylation” value ([2]; RAW-blue cells, 10^-6 M, 30 min, then IL-1β 15 min) was “inhibited the effects of all three kinases”.
With “Kineret: FDA-approved recombinant IL-1 receptor antagonist” the “Western Blot JNK (heatmap grade of inhibition)” value [2] was 4.
